Earlier results in patent US20070212431A1, “Cream for treatment of skin injured by the sun” (priority 2001, published 2007).

How the values were obtained:
[1] = topical application to the skin
photodamaged skin = details: controlled studies (Q-10); open uncontrolled clinical study (lipoic acid)
[2] = applied to the skin in ethyl alcohol solution, after penetrating the horny layer

| time until found in the dermis [1] | share reaching the dermis [2] | share reaching the living part of epidermis [2] | Compound | effect on photodamaged skin (photodamaged skin) |
| --- | --- | --- | --- | --- |
| ≤ 4 h |  |  | O=C(O)CCCCC1CCSS1 (racemic) [lipoic acid, d,l-α-lipoic acid] | shown to have an effect on photodamaged skin to a certain extent |
|  | ~2% | about 20% | COC1=C(OC)C(=O)C(C/C=C(\C)CC/C=C(\C)CC/C=C(\C)CC/C=C(\C)CC/C=C(\C)CC/C=C(\C)CC/C=C(\C)CC/C=C(\C)CC/C=C(\C)CCC=C(C)C)=C(C)C1=O [Q-10, coenzyme Q-10] | to some extent has been shown to have an effect |
